Reference: paper PMC7016953 (Cells, 2020)

Target: T1, TRPC3 (Homo sapiens, UniProt Q13507)
T1 construct: expressed in transfected cells
T1 sequence (Q13507 1-848 isoform Q13507-3): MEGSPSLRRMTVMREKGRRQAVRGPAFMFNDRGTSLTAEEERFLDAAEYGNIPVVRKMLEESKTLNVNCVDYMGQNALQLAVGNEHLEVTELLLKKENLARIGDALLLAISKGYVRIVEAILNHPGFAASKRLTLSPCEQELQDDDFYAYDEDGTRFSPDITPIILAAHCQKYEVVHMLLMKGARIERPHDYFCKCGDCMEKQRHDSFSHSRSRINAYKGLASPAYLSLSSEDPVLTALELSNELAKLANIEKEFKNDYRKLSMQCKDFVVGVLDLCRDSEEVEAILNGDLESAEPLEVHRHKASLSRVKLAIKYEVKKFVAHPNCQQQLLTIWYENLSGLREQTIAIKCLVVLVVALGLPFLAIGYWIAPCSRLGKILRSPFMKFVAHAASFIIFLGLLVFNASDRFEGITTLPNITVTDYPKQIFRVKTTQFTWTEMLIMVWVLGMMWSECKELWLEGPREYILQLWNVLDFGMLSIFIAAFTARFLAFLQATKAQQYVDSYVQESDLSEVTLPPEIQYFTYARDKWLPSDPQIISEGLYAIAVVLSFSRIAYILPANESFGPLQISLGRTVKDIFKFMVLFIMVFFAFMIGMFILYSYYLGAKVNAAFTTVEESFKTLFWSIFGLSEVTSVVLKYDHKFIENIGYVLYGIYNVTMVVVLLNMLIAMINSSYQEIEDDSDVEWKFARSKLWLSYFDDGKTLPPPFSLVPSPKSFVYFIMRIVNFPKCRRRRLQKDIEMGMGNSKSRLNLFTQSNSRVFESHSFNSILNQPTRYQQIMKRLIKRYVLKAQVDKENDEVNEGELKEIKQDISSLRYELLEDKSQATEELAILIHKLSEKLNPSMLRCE
Experiment: Outside-out patch recordings from HEK TRPC3-YFP cells
Assay type: cell-based
Conditions: 50 µM, outside-out patches, −100 mV, n = 6
Protocol: The recordings of TRPC3, TRPC6, or TRPC7 membrane currents in HEK293 or PC12 cells were realized by using a Multiclamp 700B amplifier with a Digidata 1440A digitizer controlled by the PClamp 10 software (all Molecular Devices, Sunnyvale, CA, U.S.A.). Recordings were obtained at room temperature either in the whole-cell or in an outside-out configuration as indicated. Cells were seeded as described above, but at lower density, mounted in a chamber (Warner Instruments, Hamden, CT; U.S.A.), placed onto the stage of an inverted microscope, and perfused with required solution. The standard extracellular solution contained 140 mM NaCl, 5 mM CsCl, 2 mM MgCl2, 1 mM CaCl2, 10 mM HEPES, and 0.035% BSA adjusted to pH 7.4 with NaOH. The composition of standard intracellular solution was 140 mM CsCl, 1 mM MgCl2, 5 mM EGTA, and 10 mM HEPES adjusted to pH 7.25 with CsOH; the osmolarity was 295 mOsm l^−1. In outside-out measurements, the pipette solution contained 5 mM EGTA and 1.1 mM CaCl2 to achieve a calculated free Ca^2+ concentration of 100 nM. […]
Outside-out patches were obtained from HEKTRPC3-YFP cells, and ionic currents were continuously recorded at a patch potential of –100 mV. […] (B) The open probability (Po) for the unknown number N of channels in the patch of the experiment shown in (A) was calculated over 2 s bins and plotted at the same time scale.

C[C@@H]1CC[C@H]2[C@@H](C)C(=O)O[C@@H]3O[C@@]4(C)CC[C@@H]1[C@]32OO4 [artemisinin]
increase in the open probability: about 5.5 fold
